Active and inactive are the calls of the source. The rule behind the calls is not given here.
Columns and labels:
Kidney = assay: Ex vivo inhibition of renal cystogenesis in wild type C57BL/6 mouse kidney assessed as suppression of 8-Br-cAMP-induced cyst development at 1 uM treated for 6 days by inverted microscopic analysis; format: functional, tissue-based; details: time 6.0 day
MDCK [1] = assay: Inhibition of colony formation in MDCK cells measured after 8 days by crystal violet staining based analysis; format: functional, cell-based; details: Canis lupus familiaris, dose 0.3-1 µM, time 8.0 day
[2] = AUC (0 to t) in C57BL/6 mouse at 1 mg/kg, sc by LC-MS/MS analysis; format: ADME, organism-based; details: in vivo
Mus musculus [3] = assay: Inhibition of renal cystogenesis in PKD1 knockout ADPKD C57BL/6 mouse assessed as reduction in kidney size at 1 mg/kg, sc administered once daily for 1 week; format: functional, organism-based; details: time 1.0 weeks
[4] = AUC (0 to infinity) in C57BL/6 mouse at 1 mg/kg, sc by LC-MS/MS analysis; format: ADME, organism-based; details: in vivo
Mus musculus [5] = assay: Inhibition of renal cystogenesis in PKD1 knockout ADPKD C57BL/6 mouse assessed as increase in renal parenchyma at 1 mg/kg, sc administered once daily for 1 week by H and E staining based analysis; format: functional, organism-based; details: time 1.0 weeks
[6] = Cmax in C57BL/6 mouse at 1 mg/kg, sc by LC-MS/MS analysis; format: ADME, organism-based; details: in vivo
[7] = Tmax in C57BL/6 mouse at 1 mg/kg, sc by LC-MS/MS analysis; format: ADME, organism-based; details: in vivo
HeLa = details: Homo sapiens, dose 100.0 nM, time 15.0 min;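 also: HDAC inhibition in HeLa cells, read on a microplate reader using an acetylated peptide AMC substrate, expressed relative to control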
MDCK [8] = assay: Upregulation of acetylation of alpha tubulin level in MDCK cells incubated for 24 hrs by Western blot analysis; format: functional, cell-based; details: Canis lupus familiaris, dose 0.3-1 µM
Mus musculus [9] = assay: Inhibition of renal cystogenesis in PKD1 knockout ADPKD C57BL/6 mouse assessed as decrease in kidney size at 1 mg/kg, sc administered once daily for 1 week by H and E staining based analysis; format: functional, organism-based; details: time 1.0 weeks
[10] = Half life in C57BL/6 mouse at 1 mg/kg, sc by LC-MS/MS analysis; format: ADME, organism-based; details: in vivo
MDCK [11] = assay: Inhibition of cystogenesis in PKD1 knockout ADPKD MDCK cells assessed as inhibition of cyst formation at 0.3 to 1 uM; format: functional, cell-based; details: Canis lupus familiaris, dose 0.3-1 µM, time 4-10 day, TDE = time-dependent effect
MDCK [12] = assay: Antiproliferative activity against MDCK cells at 0.3 to 1 uM by Hoechst 33342 and EdU staining based analysis; format: functional, cell-based; details: Canis lupus familiaris, dose 0.3-1 µM
Mus musculus [13] = assay: Inhibition of renal cystogenesis in PKD1 knockout ADPKD C57BL/6 mouse assessed as reduction kidney to body weight ratio index at 1 mg/kg, sc administered once daily for 1 week (19.5 +/-0.5%); format: functional; design: scale not given: the % may be the effect or the level left; details: time 1 weeks
MDCK [14] = assay: Cytotoxicity against MDCK cells at 0.3 to 1 uM by CCK-8 assay; format: toxicity, cell-based, Canis lupus familiaris; details: dog, dose 0.3-1 µM
Mus musculus [15] = assay: Inhibition of renal cystogenesis in PKD1 knockout ADPKD C57BL/6 mouse assessed as reduction in renal cyst formation at 1 mg/kg, sc administered once daily for 1 week by H and E staining based analysis; format: functional, organism-based; details: time 1.0 weeks
[16] = Terminal elimination half life in C57BL/6 mouse at 1 mg/kg, sc by LC-MS/MS analysis; format: ADME, organism-based; details: in vivo, read-out: LambdaZ (converted)

Structure (SMILES)	inhibition (HeLa)	also measured
COc1ccc(-c2nc3ccccc3s2)cc1OCCCCCCC(=O)NO	88%	Activity (Kidney): Active; inhibition (MDCK [1]): Dose-Dependent Effect; AUC(0-t) [2]: 597 ng·h/mL; Activity (Mus musculus [3]): Active; AUC(0-inf) [4]: 614 ng·h/mL; Activity (Mus musculus [5]): Active; Cmax [6]: 572 ng/mL; Tmax [7]: 0.25 h; Activity (MDCK [8]): Dose-Dependent Effect; Activity (Mus musculus [9]): Active; half-life [10]: 5.75 h; inhibition (MDCK [11]): Tde; Activity (MDCK [12]): Active; Activity (Mus musculus [13]): 14.2%; Activity (MDCK [14]): Non-Toxic; Activity (Mus musculus [15]): Active; k el [16]: 3.61e-05 s⁻¹
O=C(COc1cccc(-c2nc3ccccc3s2)c1)NO	66.5%	–
O=C(CCCCCCOc1ccc(-c2nc3ccc(F)cc3s2)cc1)NO	61.2%	–
O=C(CCCCCCOc1ccc(-c2nc3ccccc3s2)cc1F)NO	46.2%	–
O=C(CCCCCCOc1cccc(-c2nc3ccccc3s2)c1F)NO	68.7%	–
O=C(CCCOc1ccc(-c2nc3ccccc3s2)cc1)NO	3.33%	–
O=C(CCCCCCCOc1cccc(-c2nc3ccccc3s2)c1)NO	65.3%	–
COc1ccc(-c2nc3ccccc3s2)cc1OCCCCCCCC(=O)NO	28.2%	–
O=C(CCCCCCOc1ccc(-c2nc3ccccc3s2)cc1Cl)NO	18.3%	–
O=C(CCCCCCOc1ccc(-c2nc3cc(Cl)ccc3s2)cc1)NO	42.7%	–
COc1cc(-c2nc3ccccc3s2)cc(OC)c1OCCCCCCC(=O)NO	81.7%	–
O=C(CCCCCCCOc1ccc(-c2nc3ccccc3s2)cc1)NO	9.17%	–
COc1ccc2nc(-c3ccc(OC)c(OCCCCCCC(=O)NO)c3)sc2c1	80.3%	–
COc1ccc(-c2nc3ccc(C)cc3s2)cc1OCCCCCCC(=O)NO	67.8%	–
O=C(CCCCCCOc1cccc(-c2nc3ccccc3s2)c1)NO	76.8%	–
O=C(CCCCCCOc1ccc(-c2nc3ccccc3s2)cc1)NO	84.2%	–
O=C(CCCCCCOc1ccc(-c2nc3ccccc3s2)c(Cl)c1)NO	33.2%	–
COc1ccc(-c2nc3ccc(Cl)cc3s2)cc1OCCCCCCC(=O)NO	44.5%	–

Structure (SMILES)	inhibition (HeLa)	also measured
COc1cc(-c2nc3ccccc3s2)ccc1OCCCCCCC(=O)NO	74.2%	–
Cc1cc(-c2nc3ccccc3s2)ccc1OCCCCCCC(=O)NO	39.3%	–
O=C(CCCCCOc1cccc(-c2nc3ccccc3s2)c1)NO	76.7%	–
CCOc1cc(-c2nc3ccccc3s2)ccc1OCCCCCCC(=O)NO	75%	–
O=C(CCCCOc1cccc(-c2nc3ccccc3s2)c1)NO	45.7%	–
O=C(CCCCCCOc1cccc(-c2nc3ccccc3s2)c1Cl)NO	62%	–
O=C(CCCCOc1ccc(-c2nc3ccccc3s2)cc1)NO	56%	–
COc1ccc(-c2nc3ccc(F)cc3s2)cc1OCCCCCCC(=O)NO	77.3%	–
O=C(CCCCCCOc1ccc(-c2nc3ccccc3s2)c(F)c1)NO	83%	–
O=C(CCCCCCOc1ccc(-c2nc3ccc(Cl)cc3s2)cc1)NO	21.7%	–
Cc1ccccc1C(=O)Nc1ccc(C(=O)N2CCCC(O)c3cc(Cl)ccc32)c(C)c1 (configuration not stated) [TOLVAPTAN]	–	Activity (Mus musculus [13]): 15.8%
O=C(CCCCCOc1ccc(-c2nc3ccccc3s2)cc1)NO	26.8%	–
O=C(COc1ccc(-c2nc3ccccc3s2)cc1)NO	34.8%	–
O=C(CCCOc1cccc(-c2nc3ccccc3s2)c1)NO	41.2%	–
COc1ccc(-c2nc3cc(Cl)ccc3s2)cc1OCCCCCCC(=O)NO	37.2%	–
COc1ccc2nc(-c3ccc(OCCCCCCC(=O)NO)cc3)sc2c1	51.7%	–
Cc1ccc2nc(-c3ccc(OCCCCCCC(=O)NO)cc3)sc2c1	52.3%	–

— ChEMBL document CHEMBL5500362, “Benzothiazole derivatives as histone deacetylase inhibitors for the treatment of autosomal dominant polycystic kidney disease” (Eur J Med Chem, 2024)
